Measured values taken from the supplement of paper PMC10307832.

Tests used:
Experiment in all cases: relative viability (nuclei count vs DMSO), 5 days (fraction); higher = more cells survive
Indole-3-carbinol = compound: OCc1c[nH]c2ccccc12 [Indole-3-carbinol]
Method in brief: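 Viability was defined as treated-well nuclei divided by vehicle-well nuclei, with the median taken over replicate plates. Cells from lung cancer lines sat overnight at 37 °C in 1536-well plates, received five √10-spaced library-drug doses by pinning on vehicle-anchored plates, and grew 5 days without medium change before one-step fixation, permeabilisation and Hoechst staining, 4× imaging and MetaXpress nuclear counts. Only plates with control CV under 25% and at least one doubling were kept.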

[1] = compound: OCc1c[nH]c2ccccc12 [Indole-3-carbinol] + CS(=O)(=O)N1CCN(Cc2cc3nc(-c4cccc5[nH]ncc45)nc(N4CCOCC4)c3s2)CC1 [Pictilisib] (partner 1 µM)
Method in brief: (§1)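 Relative viability divides the nuclei count in treated wells by that in vehicle wells. Lung cancer cell lines were seeded in 1536-well plates, dosed by pin tool the next day, and fixed and stained after 5 days in one step with final 0.05% Triton X-100, 1% formaldehyde and 1 ug/ml Hoechst. Dosing was a single drug or a fixed anchor-drug dose plus five library-drug doses (not always all listed) in √10 steps, and values are medians of duplicate plates imaged at 4×.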

[2] = compound: OCc1c[nH]c2ccccc12 [Indole-3-carbinol] + CC1(C)CCC(c2ccc(Cl)cc2)=C(CN2CCN(c3ccc(C(=O)NS(=O)(=O)c4ccc(N[C@H](CCN5CCOCC5)CSc5ccccc5)c(S(=O)(=O)C(F)(F)F)c4)cc3)CC2)C1 [Navitoclax] (partner 0.5 µM)
Method in brief: as §1

[3] = compound: OCc1c[nH]c2ccccc12 [Indole-3-carbinol] + N=C(N)NC(=N)NCCc1ccccc1 [Phenformin] (partner 250 µM)
Method in brief: as §1

[4] = compound: OCc1c[nH]c2ccccc12 [Indole-3-carbinol] + COc1cc2c(Oc3ccc(NC(=O)C4(C(=O)Nc5ccc(F)cc5)CC4)cc3F)ccnc2cc1OCCCN1CCOCC1 [Foretinib] (partner 0.25 µM)
Method in brief: as §1

[5] = compound: OCc1c[nH]c2ccccc12 [Indole-3-carbinol] + O=C(c1cc(Cc2n[nH]c(=O)c3ccccc23)ccc1F)N1CCN(C(=O)C2CC2)CC1 [Olaparib] (partner 8 µM)
Method in brief: as §1

[6] = compound: OCc1c[nH]c2ccccc12 [Indole-3-carbinol] + CS(=O)(=O)CCNCc1ccc(-c2ccc3ncnc(Nc4ccc(OCc5cccc(F)c5)c(Cl)c4)c3c2)o1 [Lapatinib] (partner 2 µM)
Method in brief: as §1

[7] = compound: OCc1c[nH]c2ccccc12 [Indole-3-carbinol] + C[C@@H](Oc1cc(-c2cnn(C3CCNCC3)c2)cnc1N)c1c(Cl)ccc(F)c1Cl [Crizotinib] (partner 1 µM)
Method in brief: as §1

[8] = compound: OCc1c[nH]c2ccccc12 [Indole-3-carbinol] + C[C@]1(O)C[C@@H](c2nc(-c3ccc4ccc(-c5ccccc5)nc4c3)c3c(N)nccn32)C1 [Linsitinib] (partner 1 µM)
Method in brief: as §1

[9] = compound: OCc1c[nH]c2ccccc12 [Indole-3-carbinol] + Nc1ncn([C@H]2C[C@H](O)[C@@H](CO)O2)c(=O)n1 [Decitabine] (partner 2 µM)
Method in brief: as §1

[10] = compound: OCc1c[nH]c2ccccc12 [Indole-3-carbinol] + Cc1nc(NC(=O)N2CCC[C@H]2C(N)=O)sc1-c1ccnc(C(C)(C)C(F)(F)F)c1 [Alpelisib] (partner 2 µM)
Method in brief: as §1

[11] = compound: OCc1c[nH]c2ccccc12 [Indole-3-carbinol] + CC(C)C[C@H](NC(=O)[C@H](Cc1ccccc1)NC(=O)c1cnccn1)B(O)O [Bortezomib] (partner 0.002 µM)
Method in brief: as §1

A549
relative viability (Indole-3-carbinol; 0.253 µM): 0.951
relative viability (Indole-3-carbinol; 0.8 µM): 1.03
relative viability (Indole-3-carbinol; 2.53 µM): 1.02
relative viability (Indole-3-carbinol; 8 µM): 0.91
relative viability ([1]; first compound 0.253 µM): 0.493
relative viability ([1]; first compound 0.8 µM): 0.686
relative viability ([1]; first compound 2.53 µM): 0.555
relative viability ([1]; first compound 8 µM): 0.456
relative viability ([2]; first compound 0.253 µM): 1.16
relative viability ([2]; first compound 0.8 µM): 1.29
relative viability ([2]; first compound 2.53 µM): 1.22
relative viability ([2]; first compound 8 µM): 1.17
relative viability ([3]; first compound 0.253 µM): 0.18
relative viability ([3]; first compound 0.8 µM): 0.226
relative viability ([3]; first compound 2.53 µM): 0.254
relative viability ([3]; first compound 8 µM): 0.156
relative viability ([4]; first compound 0.253 µM): 0.968
relative viability ([4]; first compound 0.8 µM): 1.04
relative viability ([4]; first compound 2.53 µM): 0.911
relative viability ([4]; first compound 8 µM): 0.965
relative viability ([5]; first compound 0.253 µM): 0.458
relative viability ([5]; first compound 0.8 µM): 0.413
relative viability ([5]; first compound 2.53 µM): 0.356
relative viability ([5]; first compound 8 µM): 0.322
relative viability ([6]; first compound 0.253 µM): 0.952
relative viability ([6]; first compound 0.8 µM): 1.11
relative viability ([6]; first compound 2.53 µM): 0.995
relative viability ([6]; first compound 8 µM): 0.938
relative viability ([7]; first compound 0.253 µM): 0.712
relative viability ([7]; first compound 0.8 µM): 0.914
relative viability ([7]; first compound 2.53 µM): 0.819
relative viability ([7]; first compound 8 µM): 0.765
relative viability ([8]; first compound 0.253 µM): 0.656
relative viability ([8]; first compound 0.8 µM): 0.578
relative viability ([8]; first compound 2.53 µM): 0.697
relative viability ([8]; first compound 8 µM): 0.545
relative viability ([9]; first compound 0.253 µM): 0.271
relative viability ([9]; first compound 0.8 µM): 0.287
relative viability ([9]; first compound 2.53 µM): 0.272
relative viability ([9]; first compound 8 µM): 0.235
relative viability ([10]; first compound 0.253 µM): 0.876
relative viability ([10]; first compound 0.8 µM): 0.842
relative viability ([10]; first compound 2.53 µM): 0.832
relative viability ([10]; first compound 8 µM): 0.66

NCI-H1299
relative viability (Indole-3-carbinol; 0.253 µM): 1.02
relative viability (Indole-3-carbinol; 0.8 µM): 1.04
relative viability (Indole-3-carbinol; 2.53 µM): 0.999
relative viability (Indole-3-carbinol; 8 µM): 0.989
relative viability ([11]; first compound 0.253 µM): 0.977
relative viability ([11]; first compound 0.8 µM): 1.02
relative viability ([11]; first compound 2.53 µM): 1.01
relative viability ([11]; first compound 8 µM): 1.03
relative viability ([1]; first compound 0.253 µM): 0.795
relative viability ([1]; first compound 0.8 µM): 0.879
relative viability ([1]; first compound 2.53 µM): 0.691
relative viability ([1]; first compound 8 µM): 0.761
relative viability ([2]; first compound 0.253 µM): 1.01
relative viability ([2]; first compound 0.8 µM): 1.05
relative viability ([2]; first compound 2.53 µM): 1.03
relative viability ([2]; first compound 8 µM): 1.02
relative viability ([4]; first compound 0.253 µM): 1.07
relative viability ([4]; first compound 0.8 µM): 1.07
relative viability ([4]; first compound 2.53 µM): 1.14
relative viability ([4]; first compound 8 µM): 1.04
relative viability ([5]; first compound 0.253 µM): 0.907
relative viability ([5]; first compound 0.8 µM): 0.995
relative viability ([5]; first compound 2.53 µM): 0.954
relative viability ([5]; first compound 8 µM): 0.952
relative viability ([6]; first compound 0.253 µM): 0.892
relative viability ([6]; first compound 0.8 µM): 0.997
relative viability ([6]; first compound 2.53 µM): 0.925
relative viability ([6]; first compound 8 µM): 0.945
relative viability ([7]; first compound 0.253 µM): 0.924
relative viability ([7]; first compound 0.8 µM): 1
relative viability ([7]; first compound 2.53 µM): 0.952
relative viability ([7]; first compound 8 µM): 0.906
relative viability ([8]; first compound 0.253 µM): 0.986
relative viability ([8]; first compound 0.8 µM): 1
relative viability ([8]; first compound 2.53 µM): 1.02
relative viability ([8]; first compound 8 µM): 0.869
relative viability ([10]; first compound 0.253 µM): 1.05
relative viability ([10]; first compound 0.8 µM): 1.11
relative viability ([10]; first compound 2.53 µM): 1.11
relative viability ([10]; first compound 8 µM): 1.01
